Experimental data: patent US11925643B2, “Toll-like receptor 4 (TLR4) inhibitors and use thereof” (MOR RESEARCH APPLICATIONS LTD., priority 2018, dated 2024)
“Also recorded” adds a separate entry of the source. Residues, ends and D or L forms follow the SMILES beside them.

Legend:
C57BL mice [1] = test: Survival after ischemia induction (MI mice model); assay type: in vivo; details: 0.3 mg/kg 1 hour after ischemia induction; 7 days; 12 mice
Protocol: (§1) Mice were anesthetized (with a mixture of 100 mg/kg ketamine and 10 mg/kg xylazine), intubated and ventilated with air until spontaneous breathing commenced. The left anterior descending artery (LAD) was ligated with one single stitch, forming an ischemia that can be observed almost immediately. By closing the LAD, no further blood flow is permitted in that area, while the surrounding myocardial tissue is almost not affected. This surgical procedure imitates the pathobiological and pathophysiological aspects occurring in infarction-related myocardial ischemia.
(§2) Real time reverse transcriptase PCR (RT-qPCR) was conducted to identify the effect of a disclosed decoy peptide on TLR-mediated induction of the inflammatory cytokine TNF-α. The effect of an exemplary decoy peptide PM6 (0.3 mg/kg; administered 1 hour after MI induction) on TNF-α mRNA expression in mice myocardium was assessed 24 h and 7 days after ischemia induction.
On the other hand, 5 out of 12 untreated mice died, which accounts for a survival rate of 58% after ischemia for the untreated mice.

C57BL mice [2] = test: Serum markers CK, LDH, troponin and GOT after LAD ligation; assay type: in vivo
Protocol: (§3) Male wild type mice (C57BL) were purchased from Harlan™ (Jerusalem, Israel). Mice were grown in a temperature-controlled atmosphere, 12/12 hours light/dark cycle and given standard food and tap water. The experiments were performed on 2-3-month-old male mice. All experiments were carried out in accordance with the guidelines of the Animal Care and Use Committee of Tel Aviv University with the Guide for the Care and Use of Laboratory Animals published by the US National Institutes of Health.
as §1
Blood was drawn out from the mice and immediately centrifuged at […] for 10 minutes to isolate the serum, which was obtained from the top portion of the test tube. The serum was mixed with double distilled water (DDW) in a ratio of 1:10 and was ready for assaying. Various markers were observed (CK, LDH & troponin) to determine cardiac damage in the serum.
A dose response experiment was conducted using the experiment design of the pilot experiment. PM6 was given to mice in three doses: 0.05, 0.30 and 1.00 mg/kg. Blood levels of four serum markers were assessed. The levels of three markers CK, LDH and troponin were correlated with MI severity. Troponin is a complex of three regulatory proteins that is integral to muscle contraction in skeletal muscle and cardiac muscle, and serves as a highly specific marker for myocardial infarction or heart muscle cell death. The level of the fourth marker GOT was used as an indicator for liver functions.

C57BL mice [3] = test: as above; assay type: in vivo; details: 0.3 mg/kg IV one hour after ligation
TNF-α mRNA = TNF-α mRNA in mouse myocardium by RT-qPCR after ischemia; assay type: in vivo, mice; details: 0.3 mg/kg 1 hour after MI induction
Protocol: Real-time RT-PCR experiments were performed in duplicates on an ABI 7900 instrument (Applied Biosystems™) using Taqman™ Master Mix (Applied Biosystems™). The average threshold cycles (Ct) of the duplicates were used to calculate the relative expression levels of the following genes: TLR4 (Applied Biosystems™ assay primer ID: Mm00569848_m1 Tlr4), TLR2 (assay primer ID: Mm01769726_m1 Tlr2), TNF-α (assay primer ID: Mm00443260_g1 Tnf) and IL-1β (assay primer ID: Mm00434228_m1 II1b) in vitro and in vivo following hypoxia or ischemia, respectively. The reference gene was TBP and the primer used was derived from mouse TATA-box binding protein (Applied Biosystems™ assay primer ID: Mm00446973_m1 Tbp). Amounts of TLR2, TLR4, TNF-α and IL-1β mRNAs in each sample were calculated relative to TBP mRNA, based on the corresponding Cts, as Relative Quantity (RQ) values, and normalized taking as 1 a randomly selected sample of the control group (TBP mRNA). […]
as §2

C57BL mice [4] = test: Heart infarct size after LAD ligation (MI mice model); assay type: in vivo
Protocol: as §3, §1
Hearts of mice from tested groups were isolated, and pictures were taken to determine the extent of infarct relative to total area of the left ventricle to thereby determine the extent of cardio-protection by an exemplary decoy peptide. The viable heart sections were put in a 1% solution of 2,3,5-triphenyl tetrazolium chloride (TTC) in phosphate buffer for 10 min at 37° C. TTC stained the viable tissue in red while necrotic tissue remained discolored. Sections were fixed overnight in 4% formaldehyde to enhance the contrast between stained and unstained tissue. The sections were then placed between two cover slips and digitally photographed using a Nikon Coolpix 5000 camera, at a resolution of 1400×960 pixels, and quantified by using ImageJ software. The area of ischemia/infarction (TTC-negative) was presented as a percentage of the entire area of the section.
Myocardial infarction (MI) in animals may be mimicked by a procedure called left anterior descending artery (LAD) ligation, described in Materials and Methods above. A pilot dose response experiment was first conducted. Decoy peptide represented by compound PM6 (0.5, 1.0 and 5.0 mg/kg) or aqueous solution of 40% polyethylene glycol (PEG 600) were administered intravenously (IV) to C57BL mice, 1 hour before LAD ligation. All mice were kept under standard animal facility conditions for 24 hours. The heart infarct size was measured in all three groups.

TLR2 mRNA = TLR2 mRNA level by RT-qPCR in hypoxic cardiomyocytes (negative control); assay type: cell-based; details: hypoxic conditions
Protocol: Real-time RT-PCR experiments were performed in duplicates on an ABI 7900 instrument (Applied Biosystems™) using Taqman™ Master Mix (Applied Biosystems™). The average threshold cycles (Ct) of the duplicates were used to calculate the relative expression levels of the following genes: TLR4 (Applied Biosystems™ assay primer ID: Mm00569848_m1 Tlr4), TLR2 (assay primer ID: Mm01769726_m1 Tlr2), TNF-α (assay primer ID: Mm00443260_g1 Tnf) and IL-1β (assay primer ID: Mm00434228_m1 II1b) in vitro and in vivo following hypoxia or ischemia, respectively. The reference gene was TBP and the primer used was derived from mouse TATA-box binding protein (Applied Biosystems™ assay primer ID: Mm00446973_m1 Tbp). Amounts of TLR2, TLR4, TNF-α and IL-1β mRNAs in each sample were calculated relative to TBP mRNA, based on the corresponding Cts, as Relative Quantity (RQ) values, and normalized taking as 1 a randomly selected sample of the control group (TBP mRNA). Calculation were performed using the Applied Biosystems Analysis™ software (StepOnePlus V2.2.2). All mRNA scores are presented in arbitrary units.
Next, peptidomimetics of SEQ ID NOs:1 and 2 were tested for their ability to affect the expression of TLR4. The level of TLR4 mRNA was measured by real-time reverse transcriptase polymerase chain reaction (RT-qPCR) method as described in Materials and Methods. […]

[5] = 0.3 mg/kg IV 1 hour before LAD ligation

Row | Compound | survival rate (C57BL mice [1]) | serum CK level (C57BL mice [2]; [5]) | serum LDH level (C57BL mice [2]; [5]) | serum troponin level (C57BL mice [2]; [5]) | GOT level (liver function) (C57BL mice [2]; 0.05, 0.30 and 1.00 mg/kg IV 1 hour before LAD ligation) | blood level of CK (C57BL mice [3]; 1 week) | blood level of LDH (C57BL mice [3]; 1 week) | level of GOT (C57BL mice [3]; 24 h and 7 days) | blood level of CK (C57BL mice [3]; 24 hours) | blood level of LDH (C57BL mice [3]; 24 hours) | TNF-α mRNA level in myocardium (TNF-α mRNA; 24 h) | TNF-α mRNA level in myocardium (TNF-α mRNA; 7 days) | heart infarct size (C57BL mice [4]; 0.05 mg/kg IV 1 hour before LAD ligation) | infarct size (C57BL mice [4]; 0.3 mg/kg IV 1 hour after ligation, 7 days) | heart infarct size (C57BL mice [4]; 0.30 mg/kg IV 1 hour before LAD ligation) | heart infarct size (C57BL mice [4]; 1.00 mg/kg IV 1 hour before LAD ligation) | infarct size (C57BL mice [4]; pilot, 0.5 mg/kg IV 1 hour before LAD ligation, 24 hours) | TLR2 mRNA expression level (TLR2 mRNA)
1 | CCCCCCCCNc1nc(=O)n(Cc2ccccc2)cc1C [PM6, 1-benzyl-5-methyl-4-(octylamino)pyrimidin-2(1H)-one] | 100% | significantly reduced; also recorded: significant reduction | significantly reduced; also recorded: significant reduction | significantly reduced; also recorded: significant reduction | did not affect | very impressive down regulation | very impressive down regulation | did not changed dramatically | very impressive down regulation | very impressive down regulation | significant reduction | significant reduction | significantly reduced | significantly reduced | significantly reduced; also recorded: significantly effective | significantly reduced | significant effect | 
2 | CC[C@H](C)[C@H](NC(C)=O)C(=O)N[C@H](C(=O)N[C@@H](Cc1ccccc1)C(=O)N[C@@H](C)C(N)=O)C(C)C [SEQ ID NO:1, (2S,3S)-2-acetamido-N-((S)-1-(((S)-1-(((S)-1-amino-1-oxopropan-2-yl)amino)-1-oxo-3-phenylpropan-2-yl)amino)-3-methyl-1-oxobutan-2-yl)-3-methylpentanamide] (Ac-IVFA-NH2) |  |  |  |  |  |  |  |  |  |  |  |  |  |  |  |  |  | relatively unaffected
